Source: patent publication US6331528A, “Method for treatment in gene therapy and use of guanine derivative therefor” (priority 2000, dated 2001)
≈ marks a conversion by molar mass, not a printed value.

Experiments:
RERF-LC-MA/LZRNL cell = assay: Cellular toxicity in control cell with no insertion of HSV-1 thymidine kinase gene (MTT); format: cell-based; conditions: Homo sapiens, 96 h, control RERF-LC-MA/LZRNL cell without HSV-1 thymidine kinase gene, 4 days
Description: (§1) The cellular toxicities of the quanine derivative for use in accordance with the invention (the compound in the free form represented by the structural formula 1), ganciclovir and aciclovir (Comparative Example 1 and 1') against HSV-1 thymidine kinase gene-introduced cells were tested.
(§2) Human lung small cell carcinoma-derived RERF-LC-MA cell was infected with a viral vector prepared by inserting the thymidine kinase gene in a vector derived from Molony mouse leukemia virus. The resulting RERF-LC-MA/LTRNL cell was used. Furthermore, RERF-LC-MA/LZRNL cell with no insertion of any HSV-1 thymidine kinase gene was used as a control cell. The method for preparing these cells and the assay of the cellular toxicities were according to the method reported by Hasegawa et al. [see Hasegawa Y. et al., Am. J. Respir. Cell Mol. Biol. 8 (6) (1993) p. 655-661]. Based on the assay method of cellular toxicity, the cellular toxicities were confirmed by a calorimetric assay method using MTT [3-(4,5-dimethylthiazol-2-yl)-2,5-diphenyl-tetrazolium bromide].
(§3) The RERF-LC-MA/LTPNL cell suspension was diluted with a culture medium (E-MEM, 10% FBS) and inoculated at 2×10^3 cells/well in a 96-well plate. Then, the pharmaceutical component (guanine derivative) for use in accordance with the invention, ganciclovir and aciclovir were added at various concentrations to these wells. Subsequently, the cellular toxicities were assayed and confirmed by a calorimetric assay humid atmosphere for 4 days and using MTT on day 4.

[1] = tested on: mouse granulocyte macrophage precursor cell (CFU-GM); assay: Effect on the inhibition of the growth of mouse granulocyte macrophage precursor cell (CFU-GM); format: cell-based, mouse C57BL/6N Crj; conditions: for IC50: CFU-GM, 168 h, mouse femur bone marrow cells, 4×10^4 cells/ml, mouse interleukin-3, 7 days, 37° C., read-out: IC50 (inhibition of CFU-GM colony formation)
Description: The effects of the guanine derivative for use in accordance with the invention (the free form of the compound represented by the structural formula 1), ganciclovir and aciclovir (Comparative Examples 2 and 2') on the inhibition of the growth of mouse granulocyte macrophage precursor cell (CFU-GM) were tested. The mouse granulocyte macrophage precursor cell of Okano et al. [see Okano A. et al., Transplantation 48 (1989) p. 495-498]. The effects on the inhibition of the growth of CFU-GM were assayed as follows. From the femur bone marrow of mouse C57BL/6N Crj females of age 10 weeks was prepared bone marrow cell, which was then inoculated at a concentration of 4×10^4 cells/ml in a semi-solid culture medium with addition of various concentrations of the guanine derivative, ganciclovir and aciclovir (Iscove's modified Dulbecco's medium, 0.8% carboxymethyl cellulose, 20% FBS, 200 units/ml mouse interleukin-3). The cell was cultured in 37° C. in 5% CO2 in a wet atmosphere on a 35-mm plate for 7 days. The emerging CFU-GM colonies were counted with a differential microscope.

[2] = background statement; cited from earlier work
RERF-LC-MA/LTRNL cell = assay: Cellular toxicity in HSV-1 thymidine kinase gene-introduced cell (MTT); format: cell-based, Human; conditions: versus ganciclovir and aciclovir
Description: as §1, §2
as §3, with “Subsequently, the cellular toxicities were assayed and confirmed by a calorimetric assay humid atmosphere for 4 days and using MTT on day 4.” left out

SMILES: Nc1nc(O)c2ncn(COC(CO)CO)c2n1 [ganciclovir]
- IC50 (RERF-LC-MA/LZRNL cell): ≥ 201 µg/mL
- IC50 [1]: 18 µg/mL (≈ 70.5 µM)

SMILES: Nc1nc2c(ncn2COCCO)c(=O)[nH]1 [aciclovir]
- IC50 (RERF-LC-MA/LZRNL cell): ≥ 250 µg/mL
- IC50 [1]: 26 µg/mL (≈ 115 µM)
- therapeutic effect [2]: extremely poor therapeutic effect

SMILES: Nc1nc2c(ncn2C[C@]2(CO)C[C@H]2CO)c(=O)[nH]1 [guanine derivative, (-)-9-[1'S,2'R-bis(hydroxymethyl)cyclopropan-1'-yl]methylguanine]
- cellular toxicity effect compared with the conventional products (RERF-LC-MA/LTRNL cell): more excellent cellular toxicity effect, compared with the conventional products
- IC50 (RERF-LC-MA/LZRNL cell): ≥ 135 µg/mL
- IC50 [1]: ≥ 66 µg/mL
- bone marrow toxicity compared with ganciclovir and aciclovir ([1]; inferred from CFU-GM colony IC50): possibly weaker than those of ganciclovir and aciclovir
